Experimental data: the supplement of paper PMC10307832

What was measured:
Experiment in all cases: relative viability (nuclei count vs DMSO), 5 days (fraction); higher = more cells survive
Linsitinib + Pemetrexed = compound: C[C@]1(O)C[C@@H](c2nc(-c3ccc4ccc(-c5ccccc5)nc4c3)c3c(N)nccn32)C1 [Linsitinib] + Nc1nc2[nH]cc(CCc3ccc(C(=O)N[C@@H](CCC(=O)O)C(=O)O)cc3)c2c(=O)[nH]1 [Pemetrexed] (partner 0.2 µM)
How it was run: (§1)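 Cells from lung cancer lines were seeded into 1536-well plates and, one day later, dosed by pin tool. Treatments were either a single drug or a fixed dose of an anchor drug with five library-drug doses (not always all listed) in √10 steps. After 5 days, nuclei were stained in a one-step fixation (final 0.05% Triton X-100, 1% formaldehyde, 1 ug/ml Hoechst) and counted on 4× images, and relative viability is the treated-to-vehicle nuclei ratio, as the median of duplicate plates.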

Ispinesib + Lapatinib = compound: Cc1ccc(C(=O)N(CCCN)[C@@H](c2nc3cc(Cl)ccc3c(=O)n2Cc2ccccc2)C(C)C)cc1 [Ispinesib] + CS(=O)(=O)CCNCc1ccc(-c2ccc3ncnc(Nc4ccc(OCc5cccc(F)c5)c(Cl)c4)c3c2)o1 [Lapatinib] (partner 2 µM)
How it was run: as §1

Ispinesib + Bortezomib = compound: Cc1ccc(C(=O)N(CCCN)[C@@H](c2nc3cc(Cl)ccc3c(=O)n2Cc2ccccc2)C(C)C)cc1 [Ispinesib] + CC(C)C[C@H](NC(=O)[C@H](Cc1ccccc1)NC(=O)c1cnccn1)B(O)O [Bortezomib] (partner 0.002 µM)
How it was run: as §1

Linsitinib + Trametinib = compound: C[C@]1(O)C[C@@H](c2nc(-c3ccc4ccc(-c5ccccc5)nc4c3)c3c(N)nccn32)C1 [Linsitinib] + CC(=O)Nc1cccc(-n2c(=O)n(C3CC3)c(=O)c3c(Nc4ccc(I)cc4F)n(C)c(=O)c(C)c32)c1 [Trametinib] (partner 0.02 µM)
How it was run: as §1

Cell Line	relative viability (Linsitinib + Pemetrexed; first compound 0.01 µM)	relative viability (Linsitinib + Pemetrexed; first compound 0.03162 µM)	relative viability (Linsitinib + Pemetrexed; first compound 0.1 µM)	relative viability (Linsitinib + Pemetrexed; first compound 0.3162 µM)	relative viability (Linsitinib + Pemetrexed; first compound 1 µM)	relative viability (Ispinesib + Lapatinib; first compound 0.001 µM)	relative viability (Ispinesib + Lapatinib; first compound 0.003162 µM)	relative viability (Ispinesib + Lapatinib; first compound 0.01 µM)	relative viability (Ispinesib + Lapatinib; first compound 0.03162 µM)	relative viability (Ispinesib + Lapatinib; first compound 0.1 µM)	relative viability (Ispinesib + Bortezomib; first compound 0.001 µM)	relative viability (Ispinesib + Bortezomib; first compound 0.003162 µM)	relative viability (Ispinesib + Bortezomib; first compound 0.01 µM)	relative viability (Ispinesib + Bortezomib; first compound 0.03162 µM)	relative viability (Ispinesib + Bortezomib; first compound 0.1 µM)	relative viability (Linsitinib + Trametinib; first compound 0.01 µM)	relative viability (Linsitinib + Trametinib; first compound 0.03162 µM)	relative viability (Linsitinib + Trametinib; first compound 0.1 µM)	relative viability (Linsitinib + Trametinib; first compound 0.3162 µM)	relative viability (Linsitinib + Trametinib; first compound 1 µM)
NCI-H322M	0.612	0.605	0.582	0.59	0.523	0.654	0.585	0.616	0.438	0.319	1.38	1.33	1.41	0.722	0.757	0.513	0.548	0.571	0.531	0.473
NCI-H2405	1.08	1.09	1.06	0.787	0.762	1.08	1.12	1.18	0.918	0.308	1.02	1.05	1.11	0.924	0.81	0.66	0.6	0.607	0.708	0.401
NCI-H1666	0.823	0.625	0.83	0.722	0.741	0.703	0.801	0.596	0.279	0.292	0.704	0.761	0.64	0.305	0.321	0.8	0.907	0.904	0.644	0.594
H3255	0.457	0.566	0.533	0.557	0.521	0.214	0.171	0.205	0.176	0.236	1	0.991	0.814	0.38	0.374		0.664	0.593	0.528	0.579
NCI-H2347	0.418	0.445	0.409	0.399	0.416	0.943	1.05	0.957	0.667	0.774		1	0.665	1.08	0.758	0.277	0.274	0.303	0.287	0.418
HCC-15	0.215	0.199	0.209	0.191	0.213	0.91	0.983	1.03	0.402	0.14	1.14	1.19	1.24	0.563	0.226	0.376	0.376	0.286	0.264	0.287
SW 1573	0.912	0.676	0.921	0.828	0.732	1.22	1.16	1.3	1.25	0.238	1.07	1.05	1.42	0.929	0.304	0.671	0.576	0.646	0.385	0.412
NCI-H838	0.252	0.209	0.256	0.214	0.212	1.08	1.09	1.31	0.183	0.26	0.745	0.9	0.991	0.674	0.23	0.464	0.498	0.435	0.333	0.369
RERF-LC-KJ	0.414	0.461	0.48	0.349	0.491	1.02	0.835	0.931	0.831	0.304	1.05	1.16	1.09	0.905	0.597	0.903	0.829	0.87	0.731	0.771
PC-14	0.137	0.0865	0.16	0.121	0.148	0.331	0.397	0.363	0.421	0.125	0.859	1.01	0.962	0.71	0.0916	0.684	0.681	0.618	0.699	0.575
NCI-H2009	1.15	0.944	1.09	0.946	0.942	0.954	0.781	0.558	0.142	0.305	1	0.986	0.854	0.189	0.261	0.275	0.266	0.256	0.307	0.242
NCI-H1437	0.317	0.247	0.307	0.288	0.275	0.98	0.928	0.901	0.419	0.206	0.451	0.608	0.592	0.487	0.134	0.518	0.518	0.519	0.34	0.352
NCI-H647	0.228	0.115	0.185	0.172	0.197	1.28	0.693	0.481	0.106	0.114	0.98	0.849	0.655	0.16	0.167	0.478	0.509	0.436	0.338	0.351
NCI-H2087	0.559	0.591	0.571	0.555	0.646	0.92	1.04	1.35	0.293	0.182	0.852	0.978	1.05	0.477	0.153	0.197	0.204	0.183	0.15	0.191
BEN	0.599	0.723	0.704	0.562	0.63	0.906	0.892	0.7	0.357	0.247	0.927	1.01	0.851	0.431	0.201	1.12	1.02	1.03	0.869	1.11
NCI-H3122	0.18	0.177	0.212	0.184	0.196	0.986	1.01	1.07	0.72	0.21	1.07	0.945	1.09	1.06	0.202	0.259	0.213	0.253		0.232
LCLC-97TM1	0.157	0.159	0.188	0.124	0.157	0.998	1.18	0.858	0.673	0.112	0.518	1.16	0.689	0.143	0.254	0.215	0.174	0.156	0.171	0.196
NCI-H2228	0.398	0.297	0.357	0.311	0.331	1.23	1.29	1.26	0.363	0.422	1.2	1.21	1.48	0.474	0.448	0.569	0.595	0.378	0.347	0.363
COR-L23	0.202	0.184	0.189	0.184	0.18	1.03	1.06	0.814	0.147	0.272	1.29	1.04	1.17	0.247	0.27	0.623	0.505	0.548	0.475	0.507
EMC-BAC-2	0.397	0.394	0.447	0.448	0.432	0.936	0.933	1	0.724	0.233	1.06	1.13	1.27	0.671	0.214	0.93	0.939	0.82	0.575	0.593
A-427	0.951	1.03	0.986		0.866	1.09	1.07	1.13	0.406	0.162	0.98	1.07	1.01	0.351	0.206	0.779	0.69	0.707		0.626
NCI-H520	0.623	0.377	0.762		0.598	0.996	0.825	0.322	0.217	0.261	0.568	0.706	0.541	0.218	0.242	0.618	0.64	0.641		0.712
NCI-H650	0.878	1.05	0.923		0.739	0.89	1.17	0.638	0.34	0.23	0.875	1.25	0.826	0.582	0.355	1.04	1.06	0.902		0.87
COR-L 105	0.963	1.1	1.23	0.771	0.984	0.347	0.311	0.251	0.247	0.265	0.836	0.664	0.325	0.311	0.303	0.427	0.448	0.441	0.412	0.389
NCI-H1755	0.388	0.401	0.653	0.234	0.398	1.02	1.16	1.09	0.41	0.203	0.975	1.07	1.01	0.605	0.249	0.731	0.783	0.76	0.715	0.721
NCI-H2085	0.887	0.887	0.934	0.928	0.905	0.721	0.857	0.81	0.444	0.314	1.08	1.08	1.18	0.818	0.484	0.557	0.644	0.503	0.449	0.514
NCI-H2023	0.257	0.134	0.238	0.0952	0.176	0.771	0.819	0.424	0.134	0.115	1	1.02	0.713	0.144	0.147	0.487	0.6	0.479	0.206	0.293
HOP-62	0.325	0.251	0.311		0.281	1.11	1.07	1.15	1.11	0.231	0.46	0.974	1.18	1.09	0.32	0.405	0.39	0.427		0.368
